Experimental data reported in the NIST ThermoML archive (doi:10.1021/je900757k).
± gives the expanded uncertainty stated by the source.

Test: isobaric coefficient of expansion
Conditions: Liquid, DSC

CCCCCCCCCCCCCCC [pentadecane]
isobaric coefficient of expansion
Conditions	298.15 K	308.15 K	318.15 K	328.15 K	338.15 K	348.15 K
5000 kPa	0.000896 ± 2.2e-05 1/K	0.000898 ± 2.2e-05 1/K	0.000901 ± 2.2e-05 1/K	0.000904 ± 2.2e-05 1/K	0.000914 ± 2.2e-05 1/K	0.000925 ± 2.3e-05 1/K
10000 kPa	0.000871 ± 2.1e-05 1/K	0.000873 ± 2.1e-05 1/K	0.000873 ± 2.1e-05 1/K	0.000873 ± 2.1e-05 1/K	0.000883 ± 2.2e-05 1/K	0.000886 ± 2.2e-05 1/K
15000 kPa	0.000848 ± 2.1e-05 1/K	0.000848 ± 2.1e-05 1/K	0.00085 ± 2.1e-05 1/K	0.000846 ± 2.1e-05 1/K	0.000846 ± 2.1e-05 1/K	0.000854 ± 2.1e-05 1/K
20000 kPa	0.000825 ± 2e-05 1/K	0.000824 ± 2e-05 1/K	0.000824 ± 2e-05 1/K	0.000823 ± 2e-05 1/K	0.000821 ± 2e-05 1/K	0.000826 ± 2e-05 1/K
25000 kPa	0.000805 ± 2e-05 1/K	0.000803 ± 2e-05 1/K	0.000803 ± 2e-05 1/K	0.000798 ± 2e-05 1/K	0.000798 ± 2e-05 1/K	0.000801 ± 2e-05 1/K
30000 kPa	0.000793 ± 1.9e-05 1/K	0.000786 ± 1.9e-05 1/K	0.000786 ± 1.9e-05 1/K	0.000781 ± 1.9e-05 1/K	0.000782 ± 1.9e-05 1/K	0.000783 ± 1.9e-05 1/K
35000 kPa	0.000772 ± 1.9e-05 1/K	0.000767 ± 1.9e-05 1/K	0.000764 ± 1.9e-05 1/K	0.000762 ± 1.9e-05 1/K	0.00076 ± 1.9e-05 1/K	0.000758 ± 1.9e-05 1/K
40000 kPa	0.000756 ± 1.9e-05 1/K	0.000751 ± 1.8e-05 1/K	0.000746 ± 1.8e-05 1/K	0.000744 ± 1.8e-05 1/K	0.000738 ± 1.8e-05 1/K	0.000737 ± 1.8e-05 1/K
45000 kPa	0.000742 ± 1.8e-05 1/K	0.000734 ± 1.8e-05 1/K	0.000731 ± 1.8e-05 1/K	0.000726 ± 1.8e-05 1/K	0.000724 ± 1.8e-05 1/K	0.00072 ± 1.8e-05 1/K
50000 kPa	0.00073 ± 1.8e-05 1/K	0.000721 ± 1.8e-05 1/K	0.000718 ± 1.8e-05 1/K	0.00071 ± 1.7e-05 1/K	0.00071 ± 1.7e-05 1/K	0.000705 ± 1.7e-05 1/K
55000 kPa	0.000717 ± 1.8e-05 1/K	0.000709 ± 1.7e-05 1/K	0.000705 ± 1.7e-05 1/K	0.000699 ± 1.7e-05 1/K	0.000697 ± 1.7e-05 1/K	0.000694 ± 1.7e-05 1/K
